The results in this text go back to US20170158636A1, “FUNCTIONALISED AND SUBSTITUTED CARBAZOLES AS ANTI-CANCER AGENTS” (Novogen Ltd., priority 2014, published 2017).

By IC50 is commonly meant the concentration that gives 50% inhibition.

Holding throughout (experiment): Anti-proliferative activity, cell-titre luminescent viability assay
Holding throughout (assay type): cell-based

The test system of test [1] is DU145 prostate cancer cells. Conditions: Homo sapiens, DU-145, 72 hours exposure. The method, then: (§1) The ability of compounds 1001-1018 and 1037-1039 to inhibit the proliferation of cancer cells representative of neuroblastoma, melanoma, prostate cancer, colorectal cancer, non-small cell lung carcinoma, and triple negative breast cancer was assessed (Table 1).
(§2) Briefly, a pre-determined number of cells as calculated from cell growth assays for each of the cell lines employed were seeded into their respective culture medium (using ATCC culture parameters—http://www.atcc.org) and cultured for 24 hours at 37° C. and 5% CO2 in 96-well culture plates. Once attached, each cell line was then exposed to increasing concentrations of each respective analogue (0.03, 0.3, 3 and 30 μM for compounds 1001-13 and 1015-18; 0.1, 0.3, 1, 3, 10 and 30 μM for compounds 1014 and 1037-39), cultured for a further 72 hours and exposed to cell-titre luminescent reagent (100 μL/well) for a further 30 minutes) to measure cell viability. Luminescence was captured using an EnVision multilabel reader and the data for each analogue concentration compared against no treatment control. For compounds 1001-13 and 1015-18, semi-log plots of Percent of Control versus concentration were prepared and IC50 determined using linear regression analysis. For compounds 1014 and 1037-39, cell viability was normalized to control (vehicle alone) and dose-response curves, and half maximal effective concentration (EC50) values were determined using Graph Pad Prism 6 (nonlinear regression sigmoidal dose-response variable slope).

Test [2] deals with MDA-MB-231 breast cancer cells. Conditions: Homo sapiens, 72 hours exposure. The method, then: as §1, §2
A further test deals with SK-Mel-28 melanoma cells. Conditions: Homo sapiens, 72 hours exposure. On the procedure: as §1, §2
Test [3] concerns PC3 prostate cancer cells. The conditions noted are these: 72 hours exposure. On the procedure:
as §1, §2

The subject of test [4] is SK-N-SH neuroblastoma cells. Conditions: Homo sapiens, 72 hours exposure. On the procedure: as §1, §2
Test [5] deals with CaCo2 colorectal cancer cells. The conditions noted are these: Homo sapiens, Caco-2, 72 hours exposure. On the procedure: as §1, §2
The test system of test [6] is A549 lung (NSLC) cancer cells. The conditions noted are these: Homo sapiens, 72 hours exposure. The method, then:
as §1, §2

Consider `CN(C)CCCn1c2ccccc2c2cc(C(=O)N3CCN(CCc4ccc(F)cc4)CC3)ccc21` [Compound 1002, (9-(3-(dimethylamino)propyl)-9H-carbazol-3-yl)(4-(4-fluorophenethyl)piperazin-1-yl)methanone], for which the concentration for half-maximal inhibition (IC50) is 3.7 µM in test [1]; 4.5 µM in test [2]; 3.7 µM with SK-Mel-28 melanoma cells; 6.1 µM in test [3]; 3.4 µM in test [4]; 3.7 µM in test [5]. This compound also registered an IC50 in test [6] of 3.4 µM.

With `COc1ccc(CCN2CCN(C(=O)c3ccc4c(c3)c3ccccc3n4CCCN(C)C)CC2)cc1` [Compound 1003, (9-(3-(dimethylamino)propyl)-9H-carbazol-3-yl)(4-(4-methoxyphenethyl)piperazin-1-yl)methanone], the IC50 was 3.6 µM in test [1]; 4.3 µM in test [2]; 3.2 µM with SK-Mel-28 melanoma cells; 3.1 µM in test [3]; 3.1 µM in test [4]; 3.7 µM in test [5]. This compound had an IC50 in test [6] of 3.4 µM.

Take `CN(C)CCCn1c2ccccc2c2cc(C(=O)N3CCN(CCc4cccc(F)c4)CC3)ccc21` [Compound 1005, (9-(3-(dimethylamino)propyl)-9H-carbazol-3-yl)(4-(3-fluorophenethyl)piperazin-1-yl)methanone]: the IC50 is 3.2 µM in test [1]; 4.1 µM in test [2]; 3.5 µM in the test with SK-Mel-28 melanoma cells; 3.3 µM in test [3]; 3.3 µM in test [4]; 3.8 µM in test [5]. In addition, 3.5 µM corresponded to half-maximal inhibition in test [6] (IC50).

Consider `COc1cccc(CCN2CCN(C(=O)c3ccc4c(c3)c3ccccc3n4CCCN(C)C)CC2)c1` [Compound 1006, (9-(3-(dimethylamino)propyl)-9H-carbazol-3-yl)(4-(3-methoxyphenethyl)piperazin-1-yl)methanone], for which the IC50 in test [1] was 4.4 µM; in test [2], 3 µM; in the test with SK-Mel-28 melanoma cells it was 3.5 µM; in test [3], 5.2 µM; in test [4], 3.4 µM; in test [5] it was 4.1 µM. The same compound came in with an IC50 in test [6] of 3.5 µM.

Take `CCN(CC)CCCn1c2ccccc2c2cc(C(=O)N3CCN(CCc4ccc(OC)cc4)CC3)ccc21` [Compound 1008, (9-(3-(diethylamino)propyl)-9H-carbazol-3-yl)(4-(4-methoxyphenethyl)piperazin-1-yl)methanone]: the IC50 is 4 µM in test [1]; 3.5 µM in test [2]; 2.5 µM with SK-Mel-28 melanoma cells; 4.8 µM in test [3]; 3.3 µM in test [4]; 6.7 µM in test [5]. The IC50 in test [6] was found to be 3.8 µM.

Consider `CCN(CC)CCCn1c2ccccc2c2cc(C(=O)N3CCN(CCc4ccc5c(c4)OCO5)CC3)ccc21` [Compound 1009, (4-(2-(benzo[d][1,3]dioxol-5-yl)ethyl)piperazin-1-yl)(9-(3-(diethylamino)propyl)-9H-carbazol-3-yl)methanone], for which the IC50 is 12.1 µM in test [1]; 4.5 µM in test [2]; 4.1 µM in the test with SK-Mel-28 melanoma cells; 4.6 µM in test [3]; 4.8 µM in test [4]; 5 µM in test [5]. Half-maximal inhibition in test [6] (IC50) was put at 4 µM.

Regarding `CCN(CC)CCCn1c2ccccc2c2cc(C(=O)N3CCN(CCc4cccc(F)c4)CC3)ccc21` [Compound 1010, (9-(3-(diethylamino)propyl)-9H-carbazol-3-yl)(4-(3-fluorophenethyl)piperazin-1-yl)methanone], the IC50 came to 3.7 µM in test [1]; 4.2 µM in test [2]; 3.9 µM in the test with SK-Mel-28 melanoma cells; 3.7 µM in test [3]; 3.3 µM in test [4]; 4.1 µM in test [5]. Moreover, the IC50 in test [6] amounted to 3.6 µM.

As to `CCN(CC)CCCn1c2ccccc2c2cc(C(=O)N3CCN(CCc4cccc(OC)c4)CC3)ccc21` [Compound 1011, (9-(3-(diethylamino)propyl)-9H-carbazol-3-yl)(4-(3-methoxyphenethyl)piperazin-1-yl)methanone], the IC50 in test [1] stood at 4.5 µM; in test [2], 2.5 µM; with SK-Mel-28 melanoma cells, 3.4 µM; in test [3], 5.5 µM; in test [4], 4.2 µM; in test [5] it was 4 µM. Further, the IC50 in test [6] was 3.8 µM.

Take `CCN(CC)CCCn1c2ccccc2c2cc(C(=O)N3CCN(CCc4ccccc4)CC3)ccc21` [Compound 1012, (9-(3-(diethylamino)propyl)-9H-carbazol-3-yl)(4-phenethylpiperazin-1-yl)methanone]: the IC50 is 3.5 µM in test [1]; 3.1 µM in test [2]; 2.8 µM in the test with SK-Mel-28 melanoma cells; 4.1 µM in test [3]; 2.9 µM in test [4]; 2.8 µM in test [5]. This compound showed an IC50 in test [6] of 3.2 µM.

With `COc1ccc(CCN2CCN(C(=O)c3ccc4c(c3)c3ccccc3n4CCCN3CCN(C)CC3)CC2)cc1` [Compound 1014, (4-(4-methoxyphenethyl)piperazin-1-yl)(9-(3-(4-methylpiperazin-1-yl)propyl)-9H-carbazol-3-yl)methanone], the IC50 amounted to 40.2 µM in test [1]; 10.2 µM in test [2]; 5.1 µM in the test with SK-Mel-28 melanoma cells; 3.8 µM in test [3]; 8.8 µM in test [4]; 13.8 µM in test [5]. Also, the IC50 in test [6] amounted to 31.1 µM.

As to `CN1CCN(CCCn2c3ccccc3c3cc(C(=O)N4CCN(CCc5ccc6c(c5)OCO6)CC4)ccc32)CC1` [Compound 1015, (4-(2-(benzo[d][1,3]dioxol-5-yl)ethyl)piperazin-1-yl)(9-(3-(4-methylpiperazin-1-yl)propyl)-9H-carbazol-3-yl)methanone], the IC50 in test [1] is 15.5 µM; in test [2], 4.4 µM; in the test on SK-Mel-28 melanoma cells it was 3.4 µM; in test [3] it was 5.3 µM; in test [4], 5.1 µM; in test [5], 5.5 µM. In test [6], this compound came in with an IC50 of 4 µM.

On to `COc1cccc(CCN2CCN(C(=O)c3ccc4c(c3)c3ccccc3n4CCCN3CCN(C)CC3)CC2)c1` [Compound 1017, (4-(3-methoxyphenethyl)piperazin-1-yl)(9-(3-(4-methylpiperazin-1-yl)propyl)-9H-carbazol-3-yl)methanone], for which the IC50 in test [1] was 6.6 µM; in test [2], 3.7 µM; in the test on SK-Mel-28 melanoma cells, 4 µM; in test [3] it was 5.2 µM; in test [4], 4.7 µM; in test [5], 4.6 µM. Further, the IC50 in test [6] stood at 3.6 µM.

Take `O=C(c1ccc2[nH]c3ccccc3c2c1)N1CCN(CCc2ccc(F)cc2)CC1` [Compound 1037, (9H-carbazol-3-yl)(4-(4-fluorophenethyl)piperazin-1-yl)methanone]: the IC50 (in test [1]; in test [2]; in the test with SK-Mel-28 melanoma cells; in test [3]; in test [4]; in test [5]) was greater than 30 µM throughout. In test [6], the IC50 was found to be 16.3 µM.

Take `O=C(c1ccc2c(c1)c1ccccc1n2CCCCl)N1CCN(CCc2ccc(F)cc2)CC1` [Compound 1038, (9-(3-chloropropyl)-9H-carbazol-3-yl)(4-(4-fluorophenethyl)piperazin-1-yl)methanone]: the IC50 (in test [1]; in test [2]; in the test with SK-Mel-28 melanoma cells; in test [3]; in test [4]; in test [5]) was greater than 30 µM each time. In addition, the IC50 in test [6] was greater than 30 µM.

Take `O=C(c1ccc2c(c1)c1ccccc1n2CCc1ccc(F)cc1)N1CCN(CCc2ccc(F)cc2)CC1` [Compound 1039, (9-(4-fluorophenethyl)-9H-carbazol-3-yl)(4-(4-fluorophenethyl)piperazin-1-yl)methanone]: the IC50 (in test [1]; in test [2]; with SK-Mel-28 melanoma cells; in test [3]; in test [4]; in test [5]) was greater than 30 µM each time. In addition, in test [6], the IC50 is greater than 30 µM.
